Laboratory results taken from article PMC7178834, “Antiproliferative benzothiazoles incorporating a trimethoxyphenyl scaffold as novel colchicine site tubulin polymerisation inhibitors” (Journal of Enzyme Inhibition and Medicinal Chemistry, 2020).
Each block holds one molecule with its values, some of them ahead of it.

Legend:
[1] = tested on: human cervical cancer cell line ME-180; design: method as in PMID 24332497; settings: read-out: Cytotoxicity IC50, ME-180; cited from earlier work
PC3 cells [2] = test: MTT antiproliferative assay, PC3 cells; type: cell-based; settings: Homo sapiens, PC-3
Description: (§1) PC3, C42B, 22RV1, and LNCAP cell lines were cultured in an atmosphere containing 5% CO2 at 37 °C, with RPMI-1640 medium with 10% foetal bovine serum, 100 U/ml penicillin and 0.1 mg/ml streptomycin. Cells were seeded at a density of 1500 per well in 96-well plates for 72 h. Then, 20 μL MTT (thiazolyl blue tetrazolium bromide) solution was added to each well, and incubated for 4 h at 37 °C. 150 μL DMSO was added to each well to dissolve the formazan after removing the liquid, the absorbance was determined at 570 nm.
(§2) Compound 12a was further examined for possible cytotoxicity against RWPE-1 (normal human prostatic cell line). […] To evaluate its antiproliferative activity against other prostate cancer cell lines, C42B, LNCAP and PC3 cells were selected to perform MTT assay.

22RV1 cells [3] = test: MTT antiproliferative assay, 22RV1 cells; type: cell-based; settings: for IC50: MTT assay, exposure for 72 h
Description: as §1
To discovery novel anti-prostate cancer agents and tubulin polymerisation inhibitors, we evaluated the antiproliferative activity of all benzothiazole derivatives 9a∼9k and 12a∼12d against a prostate cancer cell line 22RV1 using the 3–(4,5-dimethyl-2-thiazolyl)-2,5-diphenyl-2-H-tetrazolium bromide (MTT) assay. Based on previous references, [5]-fluorouracil (5-Fu) and was usually selected as a reference drug in the MTT assay to evaluate the antiproliferative activity of synthetic benzothiazole derivatives[26]^,[27]. Therefore, 5-Fu was used as the control drug in this work. In addition, compound 4 was also the control drug to compare the antiproliferative activity.

LNCAP cells = test: MTT antiproliferative assay, LNCAP cells; type: cell-based; settings: Homo sapiens
Description: as §1, §2

C42B cells = test: MTT antiproliferative assay, C42B cells; type: cell-based
Description: as §1, §2

22RV1 cells [4] = test: DAPI staining, 22RV1 cells; type: cell-based; settings: 22RV1 cells, 1, 2 and 4 μM, 48 h
Description: (§3) Cells were seeded on a 6-well plate (2 × 10^5/well) and treated with the test compound after the incubation for 24 h. Then, cells were stained by DAPI (4′,6-diamidino-2-phenylindole) in the dark for 30 min.

[5] = tested on: apoptosis-related proteins (Bcl-2 and Cleaved-parp); test: Western blot of apoptosis-related proteins, PC3 cells; type: cell-based; settings: concentration-dependent
Description: (§4) Cellular protein lysates were denatured in loading buffer at 100 °C prior to adding into SDS-PAGE. Proteins were transferred to nitrocellulose membranes, probed with indicated antibodies, and visualised by an enhanced chemiluminescence detection system. The western blotting bands were semi-quantified using Image J and adjusted for loading control.
(§5) Bcl-2 family proteins are key regulators of apoptosis and overexpression of the prominent pro-survival Bcl-2 family members like Bcl-2 is a common feature responsible for deregulation of apoptosis in prostate cancer cells. In order to investigate the apoptosis effects of compound 12a, the expression of apoptosis-related proteins (Bcl-2 and Cleaved-parp) were tested. As shown in the Figure 6(B), the expression level of Bcl-2 was decreased and the expression level of Cleaved-parp was increased in a concentration-dependent manner against prostate cancer (22RV1 cells and PC3 cells).

[6] = tested on: apoptosis-related proteins (Bcl-2 and Cleaved-parp); test: Western blot of apoptosis-related proteins, 22RV1 cells; type: cell-based; settings: concentration-dependent
Description: as §4, §5

[7] = Cytotoxicity against normal prostatic cell line RWPE-1; type: cell-based; settings: RWPE-1 normal prostatic cells; normal human prostatic cell line
Description: as §1, §2

[8] = tested on: colchicine-binding site of β-tubulin; test: EBI competition assay in PC3 cells; type: cell-based; settings: preincubation at 10 μM, Western blot
Description: 6-Well plates were seeded with PC3 cells for 24 h. Then, cells were incubated with compound 12a, colchicine or DMSO for 2 h and afterward treated with EBI ([…]) for 2 h. Then, the cells were harvested and lysed. Cell extracts were used for Western blotting analysis.
as §4
In order to evaluate whether benzothiazole hybrid 12a directly binds to tubulin at the colchicine binding site, we carried out N,N′-ethylenebis(iodoacetamide) (EBI) competition assay in PC3 cells according to previously published references[29]^,[30]. EBI is an alkylating agent that has the property to specifically cross-link the Cys239 and the Cys354 residues of β-tubulin involved in the colchicine-binding site[31]. The occupancy of colchicine-binding site by tubulin polymerisation inhibitors could inhibit the formation of the EBI: β-tubulin adduct.

PC3 cells [9] = test: DAPI staining, PC3 cells; type: cell-based; settings: PC3 cells, 1, 2 and 4 μM, 48 h
Description: as §3

[10] = tested on: microtubule network in PC3 cells; test: Immunofluorescence staining of microtubules in PC3 cells; type: cell-based; settings: 48 h
Description: PC3 cells were seeded on the slices and incubated overnight. Then, cells were treated with different concentrations of 12a. After 48 h, slices were fixed by 4% paraformaldehyde for 15 min after washed by PBS for 3 times. 0.5% Triton-X-100 was added and shaked for 20 min. 0.1% BSA was used to block for 30 min and then removed. The slices were added β-tubulin antibody (1:100) and incubated overnight. Then slices were washed by PBST 3 times, bind with secondary antibody with FITC signal (1:500) in a dark. DAPI was used to stain for 3 min and then removed. After that, images were captured by Laser scanning confocal microscope (Nikon, Japan).
As the microtubule system played an important role in the maintenance of cell shape and basic cellular functions, an immunofluorescence staining assay was performed to study whether benzothiazole hybrid 12a could disrupt the microtubule dynamics in living cells.

tubulin = test: In vitro tubulin polymerisation assay; type: biochemical; settings: tubulin 5.6 mg/ml in PEM buffer, read-out: Tubulin polymerisation inhibition IC50
Description: Tubulin (5.6 mg/ml) was resuspended in PEM buffer (containing 80 mM PIPES, […], 1 mM EGTA, 10.2% glycerol, 0.5 mM MgCl2) and then was preincubated with compound 12a, colchicine or vehicle DMSO on ice. The reaction was monitored by a spectrophotometer in […] at 420 nm (excitation wavelength is 340 nm).
The in vitro tubulin polymerisation inhibition activity of compound 12a was evaluated because of its best antiproliferative activity results among all benzothiazole hybrids. When tubulin was incubated with the tested compound 12a, the increased tendency of the fluorescence intensity was obviously slowed down compared with the control.

Structure (SMILES): CCOc1ccc2nc(N3CN(c4ccccc4)c4ccccc4C3=O)sc2c1 [Compound 3]
IC50 [1]: 4.01 µM

Structure (SMILES): COc1ccc(CN(C(=O)CSc2nc3ccccc3o2)c2cc(OC)c(OC)c(OC)c2)cc1 [Compound 4, reference compound]
IC50 (PC3 cells [2]): 3.53 µM
IC50 (22RV1 cells [3]; Homo sapiens, 22Rv1): 6.48 ± 0.25 µM
IC50 (LNCAP cells): 10 µM

Structure (SMILES): O=c1[nH]cc(F)c(=O)[nH]1 [Compound 5-FU, [5]-fluorouracil, reference compound]
IC50 (22RV1 cells [3]): 18.3 ± 1.27 µM

Structure (SMILES): COc1cc(N(Cc2ccc(F)cc2)C(=O)CSc2nc3ccccc3s2)cc(OC)c1OC [Compound 9a, 2-(Benzo[d]thiazol-2-ylthio)-N-(4-fluorobenzyl)-N-(3,4,5-trimethoxyphenyl)acetamide]
IC50 (22RV1 cells [3]; Homo sapiens, 22Rv1, 72 h): 16.2 ± 0.84 µM

Structure (SMILES): COc1cc(N(Cc2cccc(Cl)c2)C(=O)CSc2nc3ccccc3s2)cc(OC)c1OC [Compound 9b, 2-(Benzo[d]thiazol-2-ylthio)-N-(3-chlorobenzyl)-N-(3,4,5-trimethoxyphenyl)acetamide]
Fold activity loss when p-Br replaced with m-Cl (9d vs. 9b) (22RV1 cells [3]; 22RV1 cells, ratio of IC50 values): over 3 fold
IC50 (22RV1 cells [3]; Homo sapiens, 22Rv1, 72 h): > 12 µM
IC50 (22RV1 cells [3]): 19.1 ± 1.15 µM

Structure (SMILES): COc1cc(N(Cc2ccc(Cl)cc2)C(=O)CSc2nc3ccccc3s2)cc(OC)c1OC [Compound 9c, 2-(Benzo[d]thiazol-2-ylthio)-N-(4-chlorobenzyl)-N-(3,4,5-trimethoxyphenyl)acetamide]
IC50 (22RV1 cells [3]; Homo sapiens, 22Rv1, 72 h): > 12 µM
IC50 (22RV1 cells [3]): 12.2 ± 0.58 µM

Structure (SMILES): COc1ccc(CN(C(=O)CSc2nc3ccccc3s2)c2ccc(C)cc2)cc1 [Compound 9i, 2-(Benzo[d]thiazol-2-ylthio)-N-(4-methoxybenzyl)-N-(p-tolyl)acetamide]
IC50 (22RV1 cells [3]; Homo sapiens, 22Rv1, 72 h): > 20 µM

Structure (SMILES): COc1ccc(CN(C(=O)CSc2nc3ccccc3s2)c2ccc(Cl)c(Cl)c2)cc1 [Compound 9j, 2-(Benzo[d]thiazol-2-ylthio)-N-(3,4-dichlorophenyl)-N-(4-methoxybenzyl)acetamide]
IC50 (22RV1 cells [3]; Homo sapiens, 22Rv1, 72 h): > 20 µM

Structure (SMILES): COc1ccc(CN(C(=O)CSc2nc3ccccc3s2)c2ccccc2)cc1 [Compound 9k, 2-(Benzo[d]thiazol-2-ylthio)-N-(4-methoxybenzyl)-N-phenylacetamide]
melting point: 109 to 110 °C
IC50 (22RV1 cells [3]; Homo sapiens, 22Rv1, 72 h): > 20 µM

Structure (SMILES): COc1cc(N(Cc2ccc(Cl)nc2)C(=O)CSc2nc3ccccc3s2)cc(OC)c1OC [Compound 12c, 2-(Benzo[d]thiazol-2-ylthio)-N-((6-chloropyridin-3-yl)methyl)-N-(3,4,5-trimethoxyphenyl)acetamide]
IC50 (22RV1 cells [3]; Homo sapiens, 22Rv1, 72 h): 11.8 ± 0.91 µM

The remaining molecules from weak to strong by IC50 (22RV1 cells [3]; Homo sapiens, 22Rv1, 72 h), led by results:

IC50 (22RV1 cells [3]; Homo sapiens, 22Rv1, 72 h): 9.06 ± 0.17 µM
Structure (SMILES): COc1cc(N(Cc2ccccc2)C(=O)CSc2nc3ccccc3s2)cc(OC)c1OC [Compound 9f, 2-(Benzo[d]thiazol-2-ylthio)-N-benzyl-N-(3,4,5-trimethoxyphenyl)acetamide]

IC50 (22RV1 cells [3]; Homo sapiens, 22Rv1, 72 h): 8.25 ± 0.43 µM
Structure (SMILES): COc1cc(N(Cc2ccc(C)cc2)C(=O)CSc2nc3ccccc3s2)cc(OC)c1OC [Compound 9e, 2-(Benzo[d]thiazol-2-ylthio)-N-(4-methylbenzyl)-N-(3,4,5-trimethoxyphenyl)acetamide]

IC50 (22RV1 cells [3]; Homo sapiens, 22Rv1, 72 h): 7.37 ± 0.56 µM
Structure (SMILES): COc1cccc(CN(C(=O)CSc2nc3ccccc3s2)c2cc(OC)c(OC)c(OC)c2)c1 [Compound 9g, 2-(Benzo[d]thiazol-2-ylthio)-N-(3-methoxybenzyl)-N-(3,4,5-trimethoxyphenyl)acetamide]

IC50 (22RV1 cells [3]; Homo sapiens, 22Rv1, 72 h): 6.93 ± 0.46 µM
Structure (SMILES): COc1cc(N(Cc2ccc3ccccc3c2)C(=O)CSc2nc3ccccc3s2)cc(OC)c1OC [Compound 12d, 2-(Benzo[d]thiazol-2-ylthio)-N-(naphthalen-2-ylmethyl)-N-(3,4,5-trimethoxyphenyl)acetamide]

IC50 (22RV1 cells [3]; Homo sapiens, 22Rv1, 72 h): 6.2 ± 0.71 µM
Structure (SMILES): COc1cc(N(Cc2ccc(Br)cc2)C(=O)CSc2nc3ccccc3s2)cc(OC)c1OC [Compound 9d, 2-(Benzo[d]thiazol-2-ylthio)-N-(4-bromobenzyl)-N-(3,4,5-trimethoxyphenyl)acetamide]

IC50 (22RV1 cells [3]; Homo sapiens, 22Rv1, 72 h): 5.24 µM
Structure (SMILES): COc1ccc(CN(C(=O)CSc2nc3ccccc3s2)c2cc(OC)c(OC)c(OC)c2)cc1 [Compound 9h, 2-(Benzo[d]thiazol-2-ylthio)-N-(4-methoxybenzyl)-N-(3,4,5-trimethoxyphenyl)acetamide]

IC50 (22RV1 cells [3]; Homo sapiens, 22Rv1, 72 h): 5.09 ± 0.62 µM
Structure (SMILES): COc1cc(N(Cc2ccncc2)C(=O)CSc2nc3ccccc3s2)cc(OC)c1OC [Compound 12b, 2-(Benzo[d]thiazol-2-ylthio)-N-(pyridin-4-ylmethyl)-N-(3,4,5-trimethoxyphenyl)acetamide]

IC50 (PC3 cells [2]): 2.04 µM
IC50 (22RV1 cells [3]; Homo sapiens, 22Rv1, 72 h): 2.13 ± 0.24 µM
IC50 (LNCAP cells): 4.31 µM
IC50 (tubulin): 2.87 µM
Structure (SMILES): COc1cc(N(Cc2c(C)noc2C)C(=O)CSc2nc3ccccc3s2)cc(OC)c1OC [Compound 12a, 2-(Benzo[d]thiazol-2-ylthio)-N-((3,5-dimethylisoxazol-4-yl)methyl)-N-(3,4,5-trimethoxyphenyl)acetamide]
IC50 (C42B cells): 2.81 µM
Morphological changes (DAPI staining) (22RV1 cells [4]): characteristic apoptotic morphological changes were observed
Expression level of Bcl-2 [5]: decreased
Expression level of Cleaved-parp [5]: increased
Expression level of Bcl-2 [6]: decreased
Expression level of Cleaved-parp [6]: increased
IC50 at 72 h [7]: > 20 µM
Formation of the EBI: β-tubulin adduct [8]: prevented the formation of the EBI: β-tubulin adduct
Morphological changes (DAPI staining) (PC3 cells [9]): characteristic apoptotic morphological changes were observed
Effect on interphase microtubules ([10]; 1 μM): moderately depolymerised interphase microtubules
Effect on interphase microtubules ([10]; 4 μM): much stronger depolymerisation effects
